Measured values: patent publication US20240336604A1 (THE UNITED STATES OF AMERICA, AS REPRESENTED BY THE …, priority 2021, published 2024)
pIC50: −log10 of the molar value. Entries after “also recorded” stand apart in the source; their conditions may differ. Where two headings read alike, the source gives them in different places.

How the values were obtained:
[1] = target: T1, D3 DAR (Homo sapiens, UniProt P35462); test: DiscoverX D3 DAR β-arrestin recruitment assay; type: cell-based; design: host or cells: CHO
Summary of the method: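 CHO cells overexpressing D3 DAR fused to a ProLink β-galactosidase fragment plus a β-arrestin–β-galactosidase deletion mutant fusion. Receptor activation drives β-arrestin recruitment and enzyme complementation. Chemiluminescent read-out after detection substrate is added.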

[2] = target: T2, D2 DAR (Homo sapiens, UniProt P14416); test: Go BRET activation assay, D2 DAR; type: cell-based; settings: FIG. 3B right
Method: (§1) Briefly, HEK293T cells transiently expressing either the D2 DAR or D3 DAR and GαoA-Rluc8, untagged-β1, and mVenus-γ2 were harvested with EBSS, plated in 96-well white plates at 20,000 cells/well in DPBS and incubated at RT for 45 min. […] BRET signal was determined by quantifying and calculating the ratio of the light emitted by mVenus (525 nm) over that emitted by RLuc8 (485 nm) using a PHERAstar FSX Microplate Reader (BMG Labtech).

[3] = target: 5-HT6 receptor (Homo sapiens, UniProt P50406); test: 5-HT6 cAMP recruitment assay; type: cell-based; settings: read-out: IC50, antagonism of the 5-HT6 receptor
[4] = target: T2, D2 DAR; test: cAMP CAMYEL biosensor assay, D2 DAR; type: cell-based; settings: FIG. 3C right
Method: as §1, with “cAMP CAMYEL biosensor assay: HEK293” for “Briefly, HEK293T”, “expressing” for “expressing either”, “the CAMYEL cAMP biosensor (yellow fluorescence protein-Epac-Rluc)” for “GαoA-Rluc8, untagged-β1, and mVenus-γ2”, “room temperature” for “RT”

[5] = target: T2, D2 DAR; test: ERK1/2 phosphorylation assay, D2 DAR; type: cell-based; design: host or cells: CHO; settings: FIG. 3D right
Method: ERK1/2 Phosphorylation assay: ERK1/2 phosphorylation was measured using the Alphascreen SureFire Ultra ERK kit (PerkinElmer, Waltham, USA). CHO-K1 cells stably expressing either the D2 DAR or D3 DAR were seeded into 384-well small volume white plates at a density of 40,000 cells/well in serum-free Ham's F12 media overnight. […] The plate was shaken for 10 min at RT, followed by the addition of Surefire activation buffer, Surefire reaction buffer, Alphascreen acceptor beads, and Alphascreen donor beads in ratios specified by the manufacturer. The plate was incubated in the dark for 2 h, then read using a PHERAstar FSX Microplate Reader (BMG Labtech).

[6] = system: 45 GPCRs, ion channels, and neurotransmitter transporters; test: PDSP radioligand binding panel; settings: 10 μM
Method: (§2) Cmp. 1 was tested as both an agonist (FIG. 5A) or an antagonist (FIG. 5B) at a single high concentration (30 μM) on 168 different GPCRs in the DiscoverX gpcrMAX™ β-arrestin recruitment assay panel (FIGS. 5A and 5B). Assay results are presented as the mean percent activation of indicated GPCRs (for n=2 replicates). For a full description of the DiscoverX gpcrMAX™-GPCR assay panel and methods (see: http://www.DiscoverX.com). […] Data were provided by the National Institute of Mental Health (NIMH) Psychoactive Drug Screening Program (PDSP) (University of North Carolina, Chapel Hill, NC). For experimental details including radioligands used and associated Kd values for each individual target, refer to the PDSP website: http://pdsp.med.unc.edu/. While Cmp. […] The 5-HT6 receptor was not present in the functional panels, however, subsequent testing found Cmp.

[7] = system: 168 unique GPCRs; test: DiscoverX gpcrMAX β-arrestin recruitment assay panel; type: cell-based; settings: 30 μM
Method: as §2

[8] = target: T1, D3 DAR; test: [3H]-methylspiperone radioligand binding assay; settings: indicated concentrations, FIG. 1B
Method: Compounds were tested for their ability to compete with the orthosteric radioligand [^3H]-methylspiperone for binding to the D3 DAR using HEK cells transiently transfected with the D3 DAR as described in the detailed protocol below presented in Table 5. Cells were cultured in Dulbecco's modified Eagle's Medium (Corning, catalogue no. 10-013) containing 10% FBS, 1,000 units/mL Penicillin, […] Streptomycin, 100 mM sodium pyruvate, 1 μg/mL Gentamicin, and […] G418. All cells were maintained at 37° C. in 5% CO2 and 90% humidity. For radioligand binding assays cells were removed mechanically using calcium-free Earle's balanced salt solution (EBSS). Intact cells were collected by centrifugation and then lysed with 5 mM Tris-HCl and 5 mM MgCl2 at pH 7.4. Homogenates were centrifuged at 30,000×g for 30 minutes. The membranes were re-suspended in EBSS (US Biological, catalogue no. E0249-05) pH 7.4 to a concentration of 16 μg/mL. For competition binding studies, membrane preparations were incubated for 90 minutes at room temperature with various concentrations of compound and a single concentration of [^3H]-methylspiperone (Perkin Elmer, NET856) in a reaction volume of […]. Non-specific binding was determined in the presence of 4 μM (+)-butaclamol (Sigma-Aldrich, catalogue no. D033). Bound ligand was separated from unbound by filtration through GF/C filters using a PerkinElmer cell harvester and quantified on a Top-count (PerkinElmer). Ki values were determined using Cheng-Prusoff equation from observed IC50 values and ligand Kd values from separate saturation experiments.

T2 sequence (P14416 whole entry): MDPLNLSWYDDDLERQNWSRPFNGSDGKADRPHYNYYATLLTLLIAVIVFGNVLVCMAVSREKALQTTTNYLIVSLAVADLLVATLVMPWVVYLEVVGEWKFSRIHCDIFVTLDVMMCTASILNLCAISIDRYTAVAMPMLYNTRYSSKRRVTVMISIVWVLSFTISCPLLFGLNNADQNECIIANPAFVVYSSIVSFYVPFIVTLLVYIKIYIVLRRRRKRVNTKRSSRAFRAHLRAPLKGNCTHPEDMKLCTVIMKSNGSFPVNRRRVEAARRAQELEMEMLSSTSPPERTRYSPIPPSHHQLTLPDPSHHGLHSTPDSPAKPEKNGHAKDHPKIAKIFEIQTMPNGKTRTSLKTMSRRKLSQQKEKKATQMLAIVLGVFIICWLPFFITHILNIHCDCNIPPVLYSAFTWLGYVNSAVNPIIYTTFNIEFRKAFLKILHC
T1 sequence (P35462 whole entry, the tested form may be a part): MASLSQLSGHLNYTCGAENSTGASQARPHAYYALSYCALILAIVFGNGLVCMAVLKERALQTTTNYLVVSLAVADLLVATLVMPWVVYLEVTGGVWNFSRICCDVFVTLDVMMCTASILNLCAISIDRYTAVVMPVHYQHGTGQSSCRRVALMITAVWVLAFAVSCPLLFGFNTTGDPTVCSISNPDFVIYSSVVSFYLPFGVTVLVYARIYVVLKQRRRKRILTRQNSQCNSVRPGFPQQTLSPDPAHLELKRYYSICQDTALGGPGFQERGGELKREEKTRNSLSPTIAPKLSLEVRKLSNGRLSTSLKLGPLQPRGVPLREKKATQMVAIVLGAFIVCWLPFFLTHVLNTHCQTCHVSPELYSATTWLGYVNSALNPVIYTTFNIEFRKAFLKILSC
Chain of 5-HT6 receptor (P50406 whole entry): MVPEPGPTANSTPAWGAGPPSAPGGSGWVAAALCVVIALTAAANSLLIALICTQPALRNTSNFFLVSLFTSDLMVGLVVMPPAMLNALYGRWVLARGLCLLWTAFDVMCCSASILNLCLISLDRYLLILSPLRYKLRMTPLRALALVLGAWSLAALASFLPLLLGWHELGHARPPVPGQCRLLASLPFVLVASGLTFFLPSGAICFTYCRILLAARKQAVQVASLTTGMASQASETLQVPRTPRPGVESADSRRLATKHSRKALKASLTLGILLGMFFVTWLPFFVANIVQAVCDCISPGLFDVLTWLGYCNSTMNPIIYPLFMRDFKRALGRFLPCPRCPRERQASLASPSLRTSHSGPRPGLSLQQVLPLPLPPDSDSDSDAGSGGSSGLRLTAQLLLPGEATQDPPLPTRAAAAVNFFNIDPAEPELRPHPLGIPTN

pIC50 ([1]; DiscoverX β-arrestin assay, FIG. 1A, 2A, read-out: IC50, inhibition of dopamine-stimulated β-arrestin recruitment to the D3 DAR): ~4.80
pIC50 ([1]; EC80 concentration of DA (30 nM), read-out: D3 DAR IC50): 4.30 to 5.00
Emax ([1]; Imax=maximum inhibition, EC80 DA (30 nM)): 80 to 100%
antagonist activity at the D2 DAR, Go activation [2]: lacked antagonist activity
pIC50 [3]: < 4.30
antagonist activity at the D2 DAR, cAMP CAMYEL [4]: lacked antagonist activity
antagonist activity at the D2 DAR, pERK [5]: lacked antagonist activity
functional activity at the H1 receptor in the functional panels ([7]; H1 receptor): no functional activity
inhibition of [3H]-methylspiperone binding to the D3 DAR [8]: lacks ability to inhibit the binding
SMILES: Cc1ccc(NS(=O)(=O)c2c(C)[nH]c(C)c2C(=O)N2CCCC2)cc1Cl [Cmp. 1]
off-target affinity / displacement in radioligand binding panel [6]: limited off-target affinity; also recorded: minimal displacement at only the H1 histamine and 5-HT6 serotonin receptors
agonist activity in gpcrMAX panel ([7]; agonist mode): lacked agonist activity at all 168 GPCRs
antagonist activity in gpcrMAX panel ([7]; antagonist mode): the only GPCR that was antagonized was the D3 DAR
